Source: patent publication US20100035754A1, “AGENT FOR IMPROVING ALKALI RESISTANCE OF PLANT AND METHOD FOR IMPROVING ALKALI RESISTANCE OF PLANT” (COSMO OIL CO., LTD, priority 2007, published 2010)

How the values were obtained:
[1] = test system: tomato; assay: Tomato seedlings transplanted to alkaline soil, foliage spray of agent every 2 weeks, dry weight of shoots; assay type: in vivo, tomato (Kyoryoku Beijyu); conditions: pH of soil 8.8, foliage spray 5 mL/pot every 2 weeks, transplanted June 6, harvested July 6
Description: Calcium carbonate was added to field soil so as to adjust the Ca content to 5 mass %, and an appropriate amount of aqueous sodium carbonate solution was added thereto, followed by sufficiently mixing, to thereby provide alkaline soil (pH: 8.8). A chemical fertilizer (base fertilizer) was added to the alkaline soil in an amount of 10 kg/10 a (as reduced to N). Each of the pots (1/5000 a) was filled with the above soil, and on the day of June 6, tomato seedlings (Kyoryoku Beijyu, product of Nohara Seed Co., Ltd.) were transplanted to the soil, followed by cultivation in a greenhouse. After transplanting, an aqueous solution (0.05 mass %) of each agent having a composition shown in Table 8 was sprayed every 2 weeks to the stems and leaves of the plants in each pot (5 mL/pot), and the pot was controlled under ordinary conditions. On the day of July 6, the soil was washed out with water, whereby the plants were harvested. Subsequently, the plants were dried at 80° C. for 24 hours by a drier, and the dry weight of shoots of each plant was measured.
The test procedure of Example 21 was repeated, except that application of sulfur to soil treatment and application of other agent ingredients to foliage treatment were simultaneously performed.
The test procedure of Example 21 was repeated, except that the agent was changed.

[2] = test system: cotton; assay: Cotton grown in alkaline soil, foliage spray of agent every 2 weeks, plant height and dry weight of shoots; assay type: in vivo, cotton (species: Dwarf cotton); conditions: pH of soil 8.8, foliage spray 5 mL/pot every 2 weeks, sown Sep. 22, harvested November 7
Description: Calcium carbonate was added to field soil so as to adjust the Ca content to 5 mass %, and an appropriate amount of aqueous sodium carbonate solution was added thereto, followed by sufficiently mixing, to thereby provide alkaline soil (pH: 8.8). A chemical fertilizer (base fertilizer) was added to the alkaline soil in an amount of 10 kg/10 a (as reduced to N). Each of the pots (1/5000 a) was filled with the above soil, and 6 seeds of cotton (species: Dwarf cotton, product of Sakata Seed Co.) were sown in the soil on Sep. 22, followed by cultivation in a greenhouse. Ten days after, three uniform seedlings per pot were selected by cutting. After cutting, an aqueous solution (0.05 mass %) of each agent having a composition shown in Table 4 was sprayed every 2 weeks to the stems and leaves of the plants in each pot (5 mL/pot), and the pot was controlled under ordinary conditions. On the day of November 7, the soil was washed out with water, whereby the plants were harvested, and the plant height of each plant was measured. Subsequently, the plants were dried at 80° C. for 24 hours by a drier, and the dry weight of shoots of each plant was measured.
The test procedure of Example 13 was repeated, except that sulfur was further applied to soil treatment one day after foliage treatment with other agent ingredients.
The test procedure of Example 13 was repeated, except that the agent was changed. […]

[3] = test system: Komatsuna; assay: Komatsuna pot test: foliage application of agent, then sub-irrigation with pH 9.0 sodium carbonate/sodium hydrogencarbonate buffer, fresh weight of shoots; assay type: in vivo, Komatsuna (species: Calvita); conditions: 0.05 wt. % aqueous solution of agent on stems and leaves, 5 mL/pot, pH 9.0 buffer sub-irrigation three days after treatment, measured one week after irrigation
Description: Each of the pots (1/5000 a) was filled with andosols soil, and Komatsuna (species: Calvita, product of Nohara Seed Co., Ltd.) was sown in the soil. At the 3 leaf stage, five uniform seedlings per pot were selected by cutting. An aqueous solution (0.05 wt. %) of each agent having a composition shown in Table 1 was applied to the stems and leaves of the plants in each pot (5 mL/pot). Sulfur powder (“sulfur, powder,” product of Wako Pure Chemical Industries, Ltd.) was separately used in an amount given in Table 1 for soil treatment. The same sulfur powder was employed in the following Examples. Three days after the treatment, sub-irrigation was performed with a 0.5-mol/L aqueous sodium carbonate/sodium hydrogencarbonate buffer (pH: 9.0). One week after irrigation, the fresh weight of shoots of the plants was measured so as to check the growth conditions.
In Comparative Example 1, water was employed instead of an aqueous solution of each agent.

[4] = test system: Komatsuna; assay: Komatsuna grown in alkaline soil, agent applied to the soil surface every 2 weeks (soil treatment), plant height and dry weight of shoots; assay type: in vivo, Komatsuna (Calvita); conditions: pH of soil 8.8, applied to surface of the soil 10 mL/pot every 2 weeks, 27 days after sowing
Description: Calcium carbonate was added to field soil so as to adjust the Ca content to 5 mass %, and an appropriate amount of aqueous sodium carbonate solution was added thereto, followed by sufficiently mixing, to thereby provide alkaline soil (pH: 8.8). A chemical fertilizer (base fertilizer) was added to the alkaline soil in an amount of 10 kg/10 a (as reduced to N) Each of the pots (1/5000 a) was filled with the above soil, and 10 seeds of Komatsuna (Calvita, product of Nohara Seed Co., Ltd.) were sown in the soil, followed by cultivation in a greenhouse. Ten days after, five uniform seedlings per pot were selected by cutting. After cutting, an aqueous solution (0.05 mass %) of each agent having a composition shown in Table 9 was applied every 2 weeks to the surface of the soil in each pot (10 mL/pot), and the pot was controlled under ordinary conditions. Twenty-seven days after sowing, the soil was washed out with water, whereby the plants were harvested, and the plant height of each plant was measured. Subsequently, the plants were dried at 80° C. for 24 hours by a drier, and the dry weight of shoots of each plant was measured.
The test procedure of Example 23 was repeated, except that application of sulfur to soil treatment and application of other agent ingredients to foliage treatment were simultaneously performed.
The test procedure of Example 23 was repeated, except that the agent was changed.

[5] = test system: Komatsuna; assay: Komatsuna grown in alkaline soil, foliage spray of agent every 2 weeks, plant height and dry weight of shoots; assay type: in vivo, Komatsuna (Calvita); conditions: pH of soil 8.8, foliage spray 5 mL/pot every 2 weeks, 27 days after sowing, averaged
Description: Calcium carbonate was added to field soil so as to adjust the Ca content to 5 mass %, and an appropriate amount of aqueous sodium carbonate solution was added thereto, followed by sufficiently mixing, to thereby provide alkaline soil (pH: 8.8). A chemical fertilizer (base fertilizer) was added to the alkaline soil in an amount of 10 kg/10 a (as reduced to N). Each of the pots (1/5000 a) was filled with the above soil, and 10 seeds of Komatsuna (Calvita, product of Nohara Seed Co., Ltd.) were sown in the soil, followed by cultivation in a greenhouse. Ten days after, five uniform seedlings per pot were selected by cutting. After cutting, an aqueous solution (0.05 mass %) of each agent having a composition shown in Table 2 was sprayed every 2 weeks to the stems and leaves of the plants in each pot (5 mL/pot), and the pot was controlled under ordinary conditions. Twenty-seven days after sowing, the soil was washed out with water, whereby the plants were harvested. The plant height of each plant was measured. Subsequently, the plants were dried at 80° C. for 24 hours by a drier, and the dry weight of shoots of each plant was measured.
The test procedure of Example 7 was repeated, except that the amounts of ingredients were changed. […]
The test procedure of Example 7 was repeated, except that the agent was changed. […]

[6] = test system: plants grown in alkaline soil; conditions: spraying, Non-Patent Document 1; cited from earlier work
[7] = test system: corn; assay: Corn grown in alkaline soil, foliage spray of agent every 2 weeks, plant height and dry weight of shoots; assay type: in vivo, corn (species: Amai bantam 90); conditions: pH of soil 8.7, foliage spray 5 mL/pot every 2 weeks, sown November 15, harvested December 26
Description: Calcium carbonate was added to field soil so as to adjust the Ca content to 5 mass %, and an appropriate amount of aqueous sodium carbonate solution was added thereto, followed by sufficiently mixing, to thereby provide alkaline soil (pH: 8.7). A chemical fertilizer (base fertilizer) was added to the alkaline soil in an amount of 10 kg/10 a (as reduced to N). Each of the pots (1/5000 a) was filled with the above soil, and 4 seeds of corn (species: Amai bantam 90, product of Tohoku Seed Co., Ltd.) were sown in the soil on November 15, followed by cultivation in a greenhouse. Twelve days after, two uniform seedlings per pot were selected by cutting. After cutting, an aqueous solution (0.05 mass %) of each agent having a composition shown in Table 6 was sprayed every 2 weeks to the stems and leaves of the plants in each pot (5 mL/pot), and the pot was controlled under ordinary conditions. On the day of December 26, the soil was washed out with water, whereby the plants were harvested, and the plant height of each plant was measured. Subsequently, the plants were dried at 80° C. for 24 hours by a drier, and the dry weight of shoots of each plant was measured.
The test procedure of Example 17 was repeated, except that application of sulfur to soil treatment and application of other agent ingredients to foliage treatment were simultaneously performed. […]

[8] = test system: sunflower; assay: Sunflower grown in alkaline soil, foliage spray of agent every 2 weeks, plant height and dry weight of shoots; assay type: in vivo, sunflower (Pachino-gold); conditions: pH of soil 8.8, foliage spray 5 mL/pot every 2 weeks, sown June 13, measured August 10
Description: Culture soil (sowing mold, product of Takii Seed Co., Ltd.; 440 mg-N/L, 390 mg-P/L, and 410 mg-K/L) and plug soil for turf were mixed at 1:1, and calcium carbonate was added to the soil mixture to a Ca concentration of 5 mass %. An appropriate amount of aqueous sodium carbonate solution was added thereto, followed by sufficiently mixing, to thereby provide alkaline soil (pH: 8.8). Each of the No. 6-pots (surface area: 177 cm^2) was filled with the above-prepared soil, and on the day of June 13, 4 seeds of sunflower (Pachino-gold, product of Takii Seed Co., Ltd.) were sown in the soil, followed by cultivation in a greenhouse. Fourteen days after, two uniform seedlings per pot were selected by cutting. After cutting, an aqueous solution (0.05 mass %) of each agent having a composition shown in Table 7 was sprayed every 2 weeks to the stems and leaves of the plants in each pot (5 mL/pot), and the pot was controlled under ordinary conditions. On the day of August 10, the plant height and the dry weight of shoots of each plant were measured.
The test procedure of Example 19 was repeated, except that application of sulfur to soil treatment and application of other agent ingredients to foliage treatment were simultaneously performed.
The test procedure of Example 19 was repeated, except that the agent was changed.

In the case of `Cl.NCC(=O)CCC(=O)O` [compound 20, 5-Aminolevulinic acid hydrochloride], the “Dry weight of shoots” value [1] was 4.5 g.

With `Cl.NCC(=O)CCC(=O)O` [compound 10, 5-Aminolevulinic acid hydrochloride] the “Dry weight of shoots” value [2] was 0.9 g and the “Plant height (cm)” value [2] was 13.1 cm.

With `Cl.NCC(=O)CCC(=O)O` [compound 2, 5-Aminolevulinic acid hydrochloride] the “Fresh weight of shoots (%)(5 plants in total, relative to treatment period)” value [3] was 55%.

In the case of `Cl.NCC(=O)CCC(=O)O` [compound 23, 5-Aminolevulinic acid hydrochloride], the “Dry weight of shoots” value [4] was 2.1 g and the “Plant height (cm)” value [4] was 10.3 cm.

For `O=C([O-])CN(CCN(CC(=O)[O-])CC(=O)[O-])CCN(CC(=O)[O-])CC(=O)[O-].[Fe+3].[NH4+].[NH4+]` [compound 6, Ammonium diethylenetriaminepentaacetatoferrate], the “Dry weight of shoots” value [5] was 2.0 g and the “Plant height (cm)” value [5] was 9.8 cm.

For `Cl.NCC(=O)CCC(=O)O` [compound 5, 5-Aminolevulinic acid hydrochloride], the “Dry weight of shoots” value [5] was 2.2 g and the “Plant height (cm)” value [5] was 11.3 cm.

For `NCC(=O)CCC(=O)O` [5-aminolevulinic acid], the “Foliage yield of plants” value [6] is given as “prevent decrease in foliage yield”.

For `Cl.NCC(=O)CCC(=O)O` [compound 14, 5-Aminolevulinic acid hydrochloride], the “Dry weight of shoots” value [7] was 0.30 g and the “Plant height (cm)” value [7] was 23.2 cm.

With `O=C([O-])CN(CCN(CC(=O)[O-])CC(=O)[O-])CCN(CC(=O)[O-])CC(=O)[O-].[Fe+3].[NH4+].[NH4+]` [compound 24, Ammonium diethylenetriaminepentaacetatoferrate] the “Dry weight of shoots” value [4] was 1.9 g and the “Plant height (cm)” value [4] was 10.1 cm.

In the case of `Cl.NCC(=O)CCC(=O)O` [compound 17, 5-Aminolevulinic acid hydrochloride], the “Dry weight of shoots” value [8] was 6.8 g and the “Plant height (cm)” value [8] was 36 cm.
